Source: patent US8324241B2, “Triazolo compounds useful as DGAT1 inhibitors” (Bristol-Myers Squibb Company, priority 2008, dated 2012)

Biological target: T1, recombinant human DGAT1 (Homo sapiens, UniProt O75907)
T1 construct: made in house; host or cells: Sf9 insect cells (baculovirus), used as a membrane preparation
T1 sequence (O75907 1-488): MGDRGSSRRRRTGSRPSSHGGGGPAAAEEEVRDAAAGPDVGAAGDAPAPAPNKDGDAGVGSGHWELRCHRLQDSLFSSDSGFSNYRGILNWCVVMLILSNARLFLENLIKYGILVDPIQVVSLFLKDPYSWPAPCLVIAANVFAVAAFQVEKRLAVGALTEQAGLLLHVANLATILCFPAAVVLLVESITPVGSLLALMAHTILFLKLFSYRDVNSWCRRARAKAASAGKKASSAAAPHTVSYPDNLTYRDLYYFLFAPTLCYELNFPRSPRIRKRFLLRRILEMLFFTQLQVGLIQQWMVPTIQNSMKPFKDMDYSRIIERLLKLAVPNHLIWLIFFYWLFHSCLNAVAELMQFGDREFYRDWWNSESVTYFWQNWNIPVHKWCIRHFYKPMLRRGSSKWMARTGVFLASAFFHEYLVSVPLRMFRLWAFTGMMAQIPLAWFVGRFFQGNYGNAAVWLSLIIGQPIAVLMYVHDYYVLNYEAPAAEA
Assay: DGAT1 enzyme assay (SPA, membranes from Sf9 insect cells)
Format: biochemical
Conditions: 300 ng recombinant human DGAT1 membrane (Sf9), 25 μM 2-monooleoylglycerol, 25 μM [3H]-stearoyl-CoA, pH 7.4, 30 min, 25° C.; read-out: DGAT1 Enzyme Assay IC50 (inhibition)
Procedure: DGAT1 enzyme assays were conducted using membranes isolated from Sf9 insect cells expressing the recombinant human DGAT1 cDNA. The assays were conducted in 384-well plates with total volume of 25 μl at 25° C. In each assay, 300 ng of recombinant human DGAT1 membrane was incubated with 25 μM of 2-monooleoylglycerol and 25 μM of [^3H]-stearoyl-CoA in 100 mM potassium phosphate (pH 7.4) for 30 min with various concentrations of compounds delivered in DMSO. The assay was terminated by the addition of 30 μl of Stopping Solution [50 mM HEPES, 5 mg/mL Yttrium Oxide (YOX) Polylysine SPA beads, 3.33 mg/mL Fraction V BSA, 200 μM Mercuric chloride]. The signal was measured using LEADSEEKER^SM for 5 minutes. To calculate the degree of inhibition, the zero level of enzyme activity (blank) was defined by the above assay using Sf9 cell membrane uninfected with baculovirus and the 100% level of DGAT1 enzyme activity was defined by human DGAT1 assay with the vehicle DMSO. The IC50 values of inhibitors were determined by Excel-fit.

SMILES | IC50 [µM]
CCC(=O)Nc1ccc(-c2nnc3c(C(=O)N[C@H](C(=O)O)C(C)C)cccn23)cc1 [Example 23, (S)-3-Methyl-2-(3-(4-propionamidophenyl)-[1,2,4]triazolo[4,3-a]pyridine-8-carboxamido)butanoic acid] | 43
CC(C)[C@H](NC(=O)c1nccn2c(-c3ccc(Nc4nc5ccc(Cl)cc5s4)cc3)nnc12)C(=O)O [Example 63, (S)-2-(3-(4-(6-Chlorobenzothiazol-2-ylamino)phenyl)-[1,2,4]triazolo[4,3-a]pyrazine-8-carboxamido)-3-methylbutanoic acid] | 0.007
C[C@@H](NC(=O)c1cccn2c(-c3ccc(Nc4nccs4)cc3)nnc12)C(=O)O [Example 47] | 28
O=C(O)CNC(=O)c1cccn2c(-c3ccc(Nc4nccs4)cc3)nnc12 [Example 53] | 23
CC[C@H](NC(=O)c1cccn2c(-c3ccc(Nc4nc5ccc(Cl)cc5s4)cc3)nnc12)C(=O)O [Example 41] | 0.005
CC(C)[C@H](NC(=O)c1cccn2c(-c3ccc(Nc4nc5ccc(Cl)cc5s4)cc3)nnc12)C(=O)O [Example 25, (S)-2-(3-(4-(6-Chlorobenzo[d]thiazol-2-ylamino)phenyl)-[1,2,4-]triazolo[4,3-a]pyridine-8-carboxamido)-3-methylbutanoic acid] | 0.007

Results, then the molecule that gave them:

IC50 [µM] | SMILES
0.17 | O=C(O)CNC(=O)c1cccn2c(-c3ccc(NC(=O)Nc4ccccc4OC(F)(F)F)cc3)nnc12 [Example 5]
0.15 | O=C(O)CCNC(=O)c1cccn2c(-c3ccc(NC(=O)Nc4ccccc4OC(F)(F)F)cc3)nnc12 [Example 6]
0.003 | CC[C@H](C)[C@H](NC(=O)c1cccn2c(-c3ccc(NC(=O)Nc4ccccc4OC(F)(F)F)cc3)nnc12)C(=O)O [Example 16]
0.18 | O=C(Nc1ccc(-c2nnc3c(C(=O)N[C@H](C(=O)O)C4CCCCC4)cccn23)cc1)Nc1ccccc1OC(F)(F)F [Example 14]
31 | COC(=O)Nc1ccc(-c2nnc3c(C(=O)N4CCC[C@H]4C(=O)O)cccn23)cc1 [Example 22, (S)-1-(3-(4-(Methoxycarbonylamino)phenyl)-[1,2,4]triazolo[4,3-a]pyridine-8-carbonyl)pyrrolidine-2-carboxylic acid]
0.15 | O=C(Nc1ccc(-c2nnc3c(C(=O)N[C@@H](Cc4ccccc4)C(=O)O)cccn23)cc1)Nc1ccccc1OC(F)(F)F [Example 11]
